According to PubChem BioAssay (NCI):
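In this assay, cells in 96-well plates receive the compound at five concentrations for 48 hours. Endpoints are linearly interpolated between the surrounding concentrations. GI50: concentration for 50% inhibition of growth. The concentration for full growth arrest is given as TGI.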

Assays:
Assay in all cases: growth of human tumour cells (NCI), 48 h
[1] = system: UO-31 renal
[2] = system: HS 578T breast
[3] = system: SF-268 CNS
[4] = system: MOLT-4 leukemia
[5] = system: NCI/ADR-RES ovarian
[6] = system: OVCAR-5 ovarian
[7] = system: NCI-H460 lung
[8] = system: K-562 leukemia
[9] = system: SK-MEL-5 melanoma
[10] = system: ACHN renal
[11] = system: UACC-62 melanoma
[12] = system: RPMI-8226 leukemia
[13] = system: COLO 205 colon
[14] = system: LOX IMVI melanoma
[15] = system: TK-10 renal
[16] = system: MDA-MB-231 breast
[17] = system: PC-3 prostate
[18] = system: SNB-19 CNS
[19] = system: T-47D breast
[20] = system: SW-620 colon
[21] = system: A549 NSCLC
[22] = system: A498 renal
[23] = system: UACC-257 melanoma
[24] = system: MCF7 breast
[25] = system: MALME-3M melanoma
[26] = system: NCI-H23 lung
[27] = system: HCC-2998 colon
[28] = system: OVCAR-4 ovarian
[29] = system: CAKI-1 renal
[30] = system: RXF 393 renal
[31] = system: SK-OV-3 ovarian
[32] = system: CCRF-CEM leukemia
[33] = system: HOP-62 NSCLC
[34] = system: OVCAR-8 ovarian
[35] = system: IGROV1 ovarian
[36] = system: MDA-MB-435
[37] = system: HCT-15 colon
[38] = system: DU-145 prostate
[39] = system: KM12 colon
[40] = system: NCI-H226 lung
[41] = system: M14 melanoma
[42] = system: BT-549 breast
[43] = system: SF-539 CNS
[44] = system: OVCAR-3 ovarian
[45] = system: EKVX NSCLC
[46] = system: SN12C renal
[47] = system: 786-0 renal
[48] = system: SF-295 CNS
[49] = system: SK-MEL-28 melanoma
[50] = system: SNB-75 CNS
[51] = system: SK-MEL-2 melanoma
[52] = system: NCI-H522 lung
[53] = system: HOP-92 NSCLC
[54] = system: HL-60(TB) leukemia
[55] = system: U251 CNS
[56] = system: HCT-116 colon
[57] = system: HT29 colon
[58] = system: SR leukemia

For CCOC(=O)CC1C(COC(=O)NC)OC(n2cnc3c(NC(=O)Nc4ccccc4)ncnc32)C1O[Si](C)(C)C(C)(C)C (stereo unspecified), the GI50 [1] was 5.7 µM, the TGI [1] was 55.4 µM and the GI50 [2] was 3.39 µM. It also gave a TGI [2] of 14.7 µM, a GI50 [3] of 5.06 µM and a TGI [3] of 33.8 µM. The GI50 [4] was 1.99 µM, the TGI [4] was 5.74 µM and the GI50 [5] was 9.18 µM. For the same molecule, the TGI [5] was 30.6 µM, the GI50 [6] was 12.8 µM and the TGI [6] was 39.7 µM. For the same molecule, the GI50 [7] was 4.45 µM, the TGI [7] was 17.2 µM and the GI50 [8] was 3.09 µM. The TGI [8] was > 100 µM, the GI50 [9] was 5.7 µM and the TGI [9] was 18.6 µM. For the same molecule, the GI50 [10] was 5.92 µM, the TGI [10] was > 100 µM and the GI50 [11] was 15.8 µM. For the same molecule, the TGI [11] was > 100 µM, the GI50 [12] was 2.16 µM and the TGI [12] was 5.48 µM. For the same molecule, the GI50 [13] was 7.7 µM, the TGI [13] was 20.2 µM and the GI50 [14] was 7.78 µM. It also gave a TGI [14] of 23 µM, a GI50 [15] of 10.7 µM and a TGI [15] of 50 µM. The GI50 [16] was 17.5 µM, the TGI [16] was > 100 µM and the GI50 [17] was 2.87 µM. For the same molecule, the TGI [17] was 25.4 µM, the GI50 [18] was 49.2 µM and the TGI [18] was > 100 µM. The GI50 [19] was 4.95 µM, the TGI [19] was 84.7 µM and the GI50 [20] was 4.59 µM. The TGI [20] was 78.1 µM, the GI50 [21] was 6.93 µM and the TGI [21] was > 100 µM. It also gave a GI50 [22] of 4.65 µM, a TGI [22] of 21.4 µM and a GI50 [23] of 20.8 µM. The TGI [23] was > 100 µM, the GI50 [24] was 3.37 µM and the TGI [24] was 17.1 µM. It also gave a GI50 [25] of 3.34 µM, a TGI [25] of 33.1 µM and a GI50 [26] of 12.9 µM. The TGI [26] was 53 µM, the GI50 [27] was 8.76 µM and the TGI [27] was 28.8 µM. For the same molecule, the GI50 [28] was 10.7 µM, the TGI [28] was > 100 µM and the GI50 [29] was 3.72 µM. It also gave a TGI [29] of 38.8 µM, a GI50 [30] of 2.94 µM and a TGI [30] of 12.4 µM. For the same molecule, the GI50 [31] was 40.4 µM, the TGI [31] was > 100 µM and the GI50 [32] was 3.23 µM. For the same molecule, the TGI [32] was > 100 µM, the GI50 [33] was 14.7 µM and the TGI [33] was 77.7 µM. The GI50 [34] was 10.3 µM, the TGI [34] was > 100 µM and the GI50 [35] was 13.7 µM. For the same molecule, the TGI [35] was > 100 µM, the GI50 [36] was 3.26 µM and the TGI [36] was > 100 µM. For the same molecule, the GI50 [37] was 11.7 µM, the TGI [37] was > 100 µM and the GI50 [38] was 5.21 µM. The TGI [38] was 28.2 µM, the GI50 [39] was 3.21 µM and the TGI [39] was 10.7 µM. It also gave a GI50 [40] of 11.8 µM, a TGI [40] of 36.6 µM and a GI50 [41] of 6.37 µM. For the same molecule, the TGI [41] was 95.7 µM, the GI50 [42] was 2.07 µM and the TGI [42] was 6.71 µM. The GI50 [43] was 11.5 µM, the TGI [43] was 26.4 µM and the GI50 [44] was 2.42 µM. For the same molecule, the TGI [44] was 5.6 µM, the GI50 [45] was 3.39 µM and the TGI [45] was > 100 µM. It also gave a GI50 [46] of 2.17 µM, a TGI [46] of 5.19 µM and a GI50 [47] of 7.94 µM. It also gave a TGI [47] of 21.5 µM, a GI50 [48] of 2.83 µM and a TGI [48] of 15.1 µM. The GI50 [49] was 7.77 µM, the TGI [49] was > 100 µM and the GI50 [50] was 10.3 µM. For the same molecule, the TGI [50] was 50.2 µM, the GI50 [51] was 13.2 µM and the TGI [51] was 57.3 µM. The GI50 [52] was 9.58 µM, the TGI [52] was > 100 µM and the GI50 [53] was 6.52 µM. For the same molecule, the TGI [53] was 28.9 µM, the GI50 [54] was 1.39 µM and the TGI [54] was 3.78 µM. For the same molecule, the GI50 [55] was 7.57 µM, the TGI [55] was 32.3 µM and the GI50 [56] was 2.33 µM. For the same molecule, the TGI [56] was 5.38 µM, the GI50 [57] was 3.97 µM and the TGI [57] was 17.7 µM.

Cc1ccc(N(CC(=O)Nc2ccc(S(=O)(=O)N3CCC(N4CCCC4)CC3)cc2)S(=O)(=O)c2ccc(Cl)cc2)cc1 showed a GI50 [1] of 1.6 µM, a TGI [1] of 3.27 µM and a GI50 [2] of 1.76 µM. The TGI [2] was 4.39 µM, the GI50 [3] was 1.61 µM and the TGI [3] was 3.29 µM. The GI50 [4] was 1.87 µM, the TGI [4] was 4.98 µM and the GI50 [5] was 1.93 µM. It also gave a TGI [5] of 4.05 µM, a GI50 [7] of 1.75 µM and a TGI [7] of 3.43 µM. It also gave a GI50 [8] of 0.566 µM, a TGI [8] of 2.75 µM and a GI50 [9] of 1.73 µM. For the same molecule, the TGI [9] was 3.14 µM, the GI50 [12] was 2.08 µM and the TGI [12] was 5.06 µM. For the same molecule, the GI50 [13] was 1.75 µM, the TGI [13] was 3.39 µM and the GI50 [15] was 1.68 µM. For the same molecule, the TGI [15] was 3.36 µM, the GI50 [17] was 1.88 µM and the TGI [17] was 4.05 µM. It also gave a GI50 [19] of 1.74 µM, a TGI [19] of 3.91 µM and a GI50 [20] of 1.66 µM. The TGI [20] was 3.44 µM, the GI50 [21] was 1.78 µM and the TGI [21] was 3.52 µM. It also gave a GI50 [22] of 1.44 µM, a TGI [22] of 2.84 µM and a GI50 [24] of 1.6 µM. The TGI [24] was 3.6 µM, the GI50 [26] was 1.8 µM and the TGI [26] was 3.87 µM. The GI50 [29] was 1.65 µM, the TGI [29] was 3.31 µM and the GI50 [30] was 1.16 µM. For the same molecule, the TGI [30] was 2.78 µM, the GI50 [58] was 0.3 µM and the TGI [58] was 0.856 µM. For the same molecule, the GI50 [31] was 1.82 µM, the TGI [31] was 3.29 µM and the GI50 [32] was 1.9 µM. It also gave a TGI [32] of 6.35 µM, a GI50 [33] of 1.76 µM and a TGI [33] of 3.55 µM. The GI50 [34] was 1.86 µM, the TGI [34] was 3.76 µM and the GI50 [36] was 1.69 µM. For the same molecule, the TGI [36] was 3.14 µM, the GI50 [37] was 1.43 µM and the TGI [37] was 2.93 µM. It also gave a GI50 [38] of 1.76 µM, a TGI [38] of 3.4 µM and a GI50 [39] of 1.96 µM. The TGI [39] was 3.9 µM, the GI50 [41] was 1.71 µM and the TGI [41] was 3.39 µM. For the same molecule, the GI50 [42] was 1.68 µM, the TGI [42] was 3.31 µM and the GI50 [44] was 1.77 µM. The TGI [44] was 3.49 µM, the GI50 [45] was 1.69 µM and the TGI [45] was 3.82 µM. For the same molecule, the GI50 [48] was 1.74 µM, the TGI [48] was 3.42 µM and the GI50 [50] was 1.22 µM. For the same molecule, the TGI [50] was 2.73 µM, the GI50 [51] was 1.95 µM and the TGI [51] was 3.92 µM. For the same molecule, the GI50 [52] was 1.89 µM, the TGI [52] was 3.77 µM and the GI50 [53] was 1.19 µM. The TGI [53] was 2.71 µM, the GI50 [54] was 1.73 µM and the TGI [54] was 4.33 µM. The GI50 [55] was 1.56 µM, the TGI [55] was 2.98 µM and the GI50 [57] was 1.87 µM. The TGI [57] was 3.68 µM.
